The nature of the first data set: logP(HCOOH) by HPLC. The note with it: HPLC on reversed phase columns, pH 2.7, 0.1% formic acid in water / acetonitrile gradient. In kind it is physicochemical.
As for `CCC(OC1CCCCCC1)C(=O)Nc1cccc(CON=C(c2ccccc2)c2nnnn2C)n1` (stereo not drawn) [compound 195], the log p is on record as 5.27.

On to `CCC(OC1CCC1)C(=O)Nc1cccc(CON=C(c2ccccc2)c2nnnn2C)n1` (stereo not drawn) [compound 194], for which the log p was determined as 4.11.

For `Cn1nnnc1C(=NOCc1csc(NC(=O)CC[Si](C)(C)C)n1)c1ccccc1` [compound 227], the log p came to 4.01.

With `Cn1nnnc1C(=NOCc1csc(NC(=O)CON=C2CCCCC2)n1)c1ccccc1` [compound 200], the log p worked out at 3.46.

The molecule `CC1=C(CC(C)OC(=O)Nc2nc(CON=C(c3ccccc3)c3nnnn3C)cs2)C1` (stereo not drawn) [compound 210] showed a log p of 4.06.

The molecule `CC1=C(CC(C)OCC(=O)Nc2nc(CON=C(c3ccccc3)n3nnnc3C)cs2)C1` (stereo not drawn) [compound 215] yielded a log p of 4.11.

As to `CCC(OC1CCCCC1)C(=O)Nc1cccc(CON=C(c2ccccc2)c2nnnn2C)n1` (stereo not drawn) [compound 193], the log p is on record as 4.88.

As for `CC(=NOCC(=O)Nc1cccc(CON=C(c2ccccc2)n2nnnc2C)n1)c1ccccc1` [compound 202], the log p was 3.94.

`CC1CCCC(OC(C)C(=O)Nc2cccc(CON=C(c3ccccc3)c3nnnn3C)n2)C1` (stereo not drawn) [compound 197] gave a log p of 4.81.

Molecule `CC(C)=NOCCOC(=O)Nc1cccc(CON=C(c2ccccc2)c2nnnn2C)n1` [compound 213] showed a log p of 3.11.

On to `CC=NOCCOC(=O)Nc1cccc(CON=C(c2ccccc2)c2nnnn2C)n1` [compound 214], for which the log p stood at 2.96.

The same data set, now with this note: HPLC on reversed phase columns, pH 2.7, 0.1% formic acid in water / acetonitrile, linear gradient 10% to 95% acetonitrile; EEC directive 79/831 Annex V.A8.
As for `Cn1nnnc1C(=NOCc1cccc(NC(=O)OCC2CCCC2)n1)c1ccccc1` [Example 70], the log p amounted to 4.25.

In turn, `CC(OC1CCCCC1)C(=O)Nc1ccc(Br)c(CON=C(c2ccccc2)c2nnnn2C)n1` (stereo not drawn) [compound 181] yielded a log p of 5.11.

`CON=C(C(=O)Nc1cccc(CON=C(c2ccccc2)n2nnnc2C)n1)c1ccc(F)cc1` [compound 136] returned a log p of 4.11.

For `Cc1nnnn1C(=NOCc1csc(NC(=O)COC2CC(C)CCC2C(C)C)n1)c1ccccc1` (stereo not drawn) [Example 106], the log p came to 5.48.

Regarding `Cn1nnnc1C(=NOCc1cccc(NC(=O)OCCCC2CC2)n1)c1ccccc1` [Example 72], the log p was 4.15.

For `CC(OC(=O)Nc1cccc(CON=C(c2ccccc2)c2nnnn2C)n1)C1CCCC1` (stereo not drawn) [compound 162], the log p is recorded as 4.61.

Molecule `Cn1nnnc1C(=NOCc1cccc(NC(=O)OCC2CCC2)n1)c1ccccc1` [compound 163] had a log p of 3.92.

Molecule `Cc1nnnn1C(=NOCc1csc(NC(=O)C(C)OC2CCC2)n1)c1ccccc1` (stereo not drawn) [compound 165] registered a log p of 3.46.

The molecule `C#CCOCC(=O)Nc1nc(CO/N=C(/c2ccccc2)n2nnnc2C)cs1` [Example 49] returned a log p of 2.69.

`Cn1nnnc1C(=NOCc1csc(NC(=O)OCCC2CCCC2)n1)c1ccccc1` [compound 150]: the log p worked out at 4.26.

`Cn1nnnc1/C(=N\OCc1cccc(NC(=O)OCC2CCCCC2)n1)c1ccccc1` [Example 57] registered a log p of 4.72.

Take `CCC(OC1CCC1)C(=O)Nc1nc(CON=C(c2ccccc2)c2nnnn2C)cs1` (stereo not drawn) [compound 174]: the log p is recorded as 3.76.

The molecule `C=C=CCCC(=O)Nc1nc(CON=C(c2ccccc2)n2nnnc2C)cs1` [compound 139] came in with a log p of 3.09.

Molecule `Cc1nnnn1C(=NOCc1csc(NC(=O)OCCC2CC2)n1)c1ccccc1` [compound 145] had a log p of 3.5.

As to `C=C=CCCC(=O)Nc1cccc(CON=C(c2ccccc2)n2nnnc2C)n1` [compound 141], the log p came to 3.23.

On to `C#CCOC(C(=O)Nc1cccc(CON=C(c2ccccc2)c2nnnn2C)n1)C(C)C` (stereo not drawn) [compound 122], for which the log p was 3.63.

Take `CCON=C(C(=O)Nc1cccc(CON=C(c2ccccc2)n2nnnc2C)n1)c1ccc(Cl)cc1` [compound 133]: the log p turned out to be 4.93.

`Cc1nnnn1C(=NOCc1csc(NC(=O)C(C)OC2CCCC(C)C2)n1)c1ccccc1` (stereo not drawn) [compound 170] displayed a log p of 4.53.

Regarding `Cn1nnnc1C(=NOCc1cccc(NC(=O)OCCCC2CCCCC2)n1)c1ccccc1` [Example 71], the log p turned out to be 5.45.

Molecule `C#CCOC(CC)C(=O)Nc1cccc(CON=C(c2ccccc2)c2nnnn2C)n1` (stereo not drawn) [compound 121] registered a log p of 3.27.

`CCC(OC1CCCCC1)C(=O)Nc1nc(CON=C(c2ccccc2)n2nnnc2C)cs1` (stereo not drawn) [compound 166] came in with a log p of 4.56.

In the case of `C=C(C)C(C)=CCC(C)OCC(=O)Nc1nc(CON=C(c2ccccc2)n2nnnc2C)cs1` (stereo not drawn) [compound 110], the log p is given as 4.56.

`CON=C(C(=O)Nc1nc(CON=C(c2ccccc2)n2nnnc2C)cs1)c1cccc(Cl)c1Cl` [Example 30] returned a log p of 4.32.

Turning to `Cc1nnnn1C(=NOCc1csc(NC(=O)OC(C)C2CCCCC2)n1)c1ccccc1` (stereo not drawn) [compound 147], the log p is given as 4.66.

`CON=C(C(=O)Nc1cccc(CON=C(c2ccccc2)n2nnnc2C)n1)c1ccccc1Cl` [compound 131] returned a log p of 4.18.

Regarding `C#CCOC(C(=O)Nc1nc(CON=C(c2ccccc2)n2nnnc2C)cs1)C(C)C` (stereo not drawn) [compound 114], the log p turned out to be 3.46.

The molecule `CON=C(C(=O)Nc1nc(CON=C(c2ccccc2)c2nnnn2C)cs1)c1ccc(C)cc1` [compound 129] gave a log p of 4.05.

Consider `CC(OC1CCCCCC1)C(=O)Nc1cccc(CON=C(c2ccccc2)c2nnnn2C)n1` (stereo not drawn) [Example 100], for which the log p is on record as 4.8.

`Cc1nnnn1C(=NOCc1cccc(NC(=O)C(C)OC2CCC(C)CC2)n1)c1ccccc1` (stereo not drawn) [compound 191] gave a log p of 4.93.

As for `Cc1nnnn1C(=NOCc1cccc(NC(=O)COC2CC(C)CCC2C(C)C)n1)c1ccccc1` (stereo not drawn) [Example 108], the log p was found to be 5.95.

Take `CON=C(C(=O)Nc1nc(CON=C(c2ccccc2)n2nnnc2C)cs1)c1ccc(Br)cc1` [Example 29]: the log p stood at 4.41.

Turning to `CC1CCCC(OC(C)C(=O)Nc2nc(CON=C(c3ccccc3)c3nnnn3C)cs2)C1` (stereo not drawn) [compound 177], the log p is given as 4.44.

`CCON=C(C(=O)Nc1nc(CON=C(c2ccccc2)n2nnnc2C)cs1)c1ccc(Cl)cc1` [compound 123] gave a log p of 4.61.

The molecule `C=C(C)C(C)=CCC(C)OCC(=O)Nc1cccc(CON=C(c2ccccc2)c2nnnn2C)n1` (stereo not drawn) [compound 113] displayed a log p of 4.73.

On to `Cc1nnnn1C(=NOCc1csc(NC(=O)C(C)OC2CCC(C)CC2)n1)c1ccccc1` (stereo not drawn) [compound 171], for which the log p was 4.53.

In turn, `C#CCOC(C(=O)Nc1nc(CON=C(c2ccccc2)c2nnnn2C)cs1)C(C)C` (stereo not drawn) [compound 117] returned a log p of 3.44.

`Cn1nnnc1/C(=N\OCc1cccc(NC(=O)OC2CC3CCC2(C)C3(C)C)n1)c1ccccc1` (stereo not drawn) [Example 55]: the log p worked out at 5.32.

Take `C=C=CCCCOC(=O)Nc1cccc(CON=C(c2ccccc2)n2nnnc2C)n1` [compound 142]: the log p is 4.01.

`Cn1nnnc1/C(=N\OCc1cccc(NC(=O)OCC2CC2)n1)c1ccccc1` [Example 58] gave a log p of 3.46.

`C#CCOC(CC)C(=O)Nc1nc(CON=C(c2ccccc2)c2nnnn2C)cs1` (stereo not drawn) [compound 116]: the log p is recorded as 3.08.

In the case of `Cn1nnnc1C(=NOCc1csc(NC(=O)C(OC2CCCCC2)c2ccccc2)n1)c1ccccc1` (stereo not drawn) [compound 179], the log p is given as 4.82.

In turn, `Cn1nnnc1C(=NOCc1csc(NC(=O)COCC#C[Si](C)(C)C)n1)c1ccccc1` [compound 118] had a log p of 3.7.

With `Cn1nnnc1C(=NOCc1cccc(NC(=O)OCCCC2CCCC2)n1)c1ccccc1` [Example 69], the log p is 5.06.

Molecule `CCC(OC1CCCC1)C(=O)Nc1nc(CON=C(c2ccccc2)c2nnnn2C)cs1` (stereo not drawn) [compound 175] showed a log p of 4.16.

On to `CC(OC1CCCCC1)C(=O)Nc1cccc(CON=C(c2ccccc2)c2nnnn2C2CC2)n1` (stereo not drawn) [compound 180], for which the log p turned out to be 4.93.

As to `CCC(OC1CCCCC1)C(=O)Nc1cccc(CON=C(c2ccccc2)n2nnnc2C)n1` (stereo not drawn) [compound 186], the log p amounted to 4.91.

The molecule `Cc1nnnn1C(=NOCc1csc(NC(=O)OC(C)C2CCCC2)n1)c1ccccc1` (stereo not drawn) [compound 148] registered a log p of 4.3.

`Cc1nnnn1C(=NOCc1csc(NC(=O)OCCC2CCCC2)n1)c1ccccc1` [compound 146] yielded a log p of 4.33.

Molecule `Cn1nnnc1C(=NOCc1csc(NC(=O)OCCC2CC2)n1)c1ccccc1` [compound 149] registered a log p of 3.46.

Molecule `CCC(OC1CCCCCC1)C(=O)Nc1nc(CON=C(c2ccccc2)n2nnnc2C)cs1` (stereo not drawn) [compound 169] displayed a log p of 4.93.

`C=C=CCCCOC(=O)Nc1nc(CON=C(c2ccccc2)c2nnnn2C)cs1` [compound 140] gave a log p of 3.69.

Consider `C=CCCCOCC(=O)Nc1nc(CON=C(c2ccccc2)n2nnnc2C)cs1` [compound 111], for which the log p is given as 3.55.

On to `CC(OC1CCC1)C(=O)Nc1nc(CON=C(c2ccccc2)c2nnnn2C)cs1` (stereo not drawn) [compound 172], for which the log p is given as 3.39.

`CCC(OC1CCCC1)C(=O)Nc1cccc(CON=C(c2ccccc2)n2nnnc2C)n1` (stereo not drawn) [compound 188] came in with a log p of 4.65.

Turning to `CC(=NOCC(=O)Nc1cccc(CON=C(c2ccccc2)c2nnnn2C)n1)C(C)(C)C` [Example 31], the log p is reported as 4.23.

In turn, `Cc1nnnn1C(=NOCc1cccc(NC(=O)OC2CC3CCC2(C)C3(C)C)n1)c1ccccc1` (stereo not drawn) [compound 143] returned a log p of 5.3.

Staying with this data set, now noted: reversed phase HPLC column; HPLC on reversed phase columns, pH 2.7, 0.1% formic acid in water / acetonitrile, linear gradient 10% to 95% acetonitrile; EEC directive 79/831 Annex V.A8; read-out: log p.
`CC(CC1CC1)OC(=O)Nc1cccc(CO/N=C(/c2ccccc2)c2nnnn2C)n1` (stereo not drawn) [Example 60, 1-cyclopropylpropan-2-yl {6-[({[(Z)-(1-methyl-1H-tetrazol-5-yl)(phenyl)methylene]amino}oxy)methyl]pyridin-2-yl}carbamate]: the chromatographic logP came to 4.15.

The same data set, now with this note: reversed phase HPLC columns, pH 2.7; HCOOH; read-out: logP(HCOOH).
As for `CC(CC1CC1)OC(=O)Nc1cccc(CO/N=C(/c2ccccc2)c2nnnn2C)n1` (stereo not drawn) [Example 60, 1-cyclopropylpropan-2-yl {6-[({[(Z)-(1-methyl-1H-tetrazol-5-yl)(phenyl)methylene]amino}oxy)methyl]pyridin-2-yl}carbamate], the chromatographic logP amounted to 4.15.

Values taken from patent publication US20130012546A1 (priority 2009, published 2013).
